Laboratory results from ChEMBL document CHEMBL1147461, “Exploration of the P2-P3 SAR of aldehyde cathepsin K inhibitors” (Bioorg Med Chem Lett, 2004).

Tests used:
[1] = target: T1, Cathepsin K (Homo sapiens, UniProt P43235); assay: Inhibitory concentration against recombinant human cathepsin K determined in a fluorescence assay using 10 uM Cbz-Phe-Arg-AMC as substrate
T1 sequence (P43235 whole entry): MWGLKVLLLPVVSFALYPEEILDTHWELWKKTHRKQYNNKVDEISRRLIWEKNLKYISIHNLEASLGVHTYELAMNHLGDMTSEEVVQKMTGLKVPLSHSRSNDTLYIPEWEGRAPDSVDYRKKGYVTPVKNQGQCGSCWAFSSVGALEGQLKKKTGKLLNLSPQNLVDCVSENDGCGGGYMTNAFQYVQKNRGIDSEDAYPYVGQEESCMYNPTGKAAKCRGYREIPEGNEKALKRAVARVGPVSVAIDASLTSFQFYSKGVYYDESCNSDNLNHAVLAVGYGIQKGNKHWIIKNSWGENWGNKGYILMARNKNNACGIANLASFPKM

[2] = target: Cathepsin B (Homo sapiens, UniProt P07858); assay: Inhibitory concentration against recombinant human cathepsin B was determined in a fluorescence assay using 10 uM Cbz-Phe-Arg-AMC as substrate
[3] = target: Procathepsin L (Homo sapiens, UniProt P07711); assay: Inhibitory concentration against recombinant human cathepsin L was determined in a fluorescence assay using 5 uM Cbz-Phe-Arg-AMC as substrate
Sequence of Procathepsin L (P07711 whole entry): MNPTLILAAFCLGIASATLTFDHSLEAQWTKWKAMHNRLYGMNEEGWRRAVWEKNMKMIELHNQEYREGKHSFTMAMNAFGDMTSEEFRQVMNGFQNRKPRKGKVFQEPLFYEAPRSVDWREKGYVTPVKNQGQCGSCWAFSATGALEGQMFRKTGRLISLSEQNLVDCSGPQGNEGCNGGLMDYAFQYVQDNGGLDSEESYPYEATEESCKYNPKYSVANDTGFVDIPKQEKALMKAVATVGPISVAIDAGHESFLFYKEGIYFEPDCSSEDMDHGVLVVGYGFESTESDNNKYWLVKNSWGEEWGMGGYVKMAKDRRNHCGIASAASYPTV

IC50 [1]	IC50 [2]	IC50 [3]	SMILES
71 nM			CCCC[C@@H](C=O)NC(=O)OC(Cc1ccccc1)Cc1ccccc1
1.8 nM	460 nM	740 nM	CCCC[C@@H](C=O)NC(=O)O[C@@H](C)Cc1ccccc1
0.13 nM	72 nM	15 nM	CCCC[C@@H](C=O)NC(=O)O[C@@H](CC)Cc1ccccc1
1.5 nM			CCCC[C@@H](C=O)NC(=O)O[C@@H](CCC)Cc1ccccc1
6.5 nM			CCCC[C@@H](C=O)NC(=O)O[C@H](Cc1ccccc1)CC(C)C
270 nM			CCCC[C@@H](C=O)NC(=O)OCCc1ccccc1
1.1 nM			CCCC[C@@H](C=O)NC(=O)OC(CC(C)C)CC(C)C
2.7 nM	400 nM	270 nM	CCCC[C@@H](C=O)NC(=O)O[C@@H](C)CC1CCCCC1
2.4 nM	3400 nM	1200 nM	CCCC[C@@H](C=O)NC(=O)OC1(Cc2ccccc2)CCC1
2.1 nM	2200 nM	110 nM	CCCC[C@@H](C=O)NC(=O)OC(CC)(CC)Cc1ccccc1
540 nM			CCCC[C@@H](C=O)NC(=O)OCc1ccccc1
12 nM			CCCC[C@@H](C=O)NC(=O)OC(C)(C)Cc1ccccc1
2 nM	12000 nM	8500 nM	CCCC[C@@H](C=O)NC(=O)OC1(Cc2ccccc2)CCCCC1
4.6 nM			CCCC[C@@H](C=O)NC(=O)OC(C)(C)Cc1ccc(Cl)cc1
5.4 nM			CCCC[C@@H](C=O)NC(=O)OC(C)(C)Cc1cccc(OC)c1
4.7 nM			CCCC[C@@H](C=O)NC(=O)OC(C)(C(C)C)C(C)C
	810 nM	2000 nM	CCCC[C@@H](C=O)NC(=O)OC1(Cc2ccccc2)CCCC1
0.56 nM			CCCC[C@@H](C=O)NC(=O)OC(C(C)C)C(C)C
2.9 nM			CCCC[C@@H](C=O)NC(=O)OC(C)(C)Cc1ccc(OC)cc1
100 nM			CCCC[C@@H](C=O)NC(=O)O[C@H](C)Cc1ccccc1
3.1 nM			CCCC[C@@H](C=O)NC(=O)OC(C)(C)Cc1ccccc1Cl
4 nM			CCCC[C@@H](C=O)NC(=O)OC(CC)CC
0.87 nM			CCCC[C@@H](C=O)NC(=O)OC(CCC)CCC
7.6 nM			CCCC[C@@H](C=O)NC(=O)OC(C)(C)Cc1cccc(-c2ccsc2)c1
600 nM			CCCC[C@@H](C=O)NC(=O)OCCCc1ccccc1
